Patent EP0908457B1, “3-(1,2-benzisothiazol- and isoxazol-5-Y1)-2,4(1H,3H)-pyrimidinedione or thione and 3-(1,2-benzisothiazol- and isoxazol-5-y1)-4(3H)-pyrimidinone or thione herbicidal agents” (BASF AKTIENGESELLSCHAFT, priority 1997, dated 1999)

Experiments:
[1] = test system: Echinochloa oryzoides (Ard.) Fritsch.; assay: Preemergence weed control under flooded paddy conditions, ECHORC (Watergrass (Calif.)); format: in vivo; settings: preemergence, flooded paddy, rated three to four weeks after treatment
Cyperus iria = assay: Preemergence weed control under flooded paddy conditions, CYPIR (Rice Flatsedge); format: in vivo; settings: preemergence, flooded paddy, rated three to four weeks after treatment
[2] = test system: Cyperus serotinus, Rottb.; assay: Preemergence weed control under flooded paddy conditions, CYPSE (Flatsedge); format: in vivo; settings: preemergence, rated three to four weeks after treatment
[3] = test system: Monochoria vaginalis, Presl.; assay: Preemergence weed control under flooded paddy conditions, MOOVA (Monochoria); format: in vivo; settings: preemergence, flooded paddy, rated three to four weeks after treatment
Sagittaria pygmaea, L. = assay: Preemergence weed control under flooded paddy conditions, SAGPY (Arrowhead (Pygmaea)); format: in vivo; settings: preemergence, flooded paddy, rated three to four weeks after treatment
[4] = test system: Oryza sativa, (L.) Tebonnet; assay: Rice tolerance to post-transplant applications under flooded paddy conditions (Example 187), ORYSAT (Rice, Tebonnet); settings: rated three to four weeks after treatment; as to herbicidal effect rating ORYSAT: meaning of each grade not given here

Cc1ccc(S(=O)(=O)NC(=O)c2nsc3ccc(-n4c(=O)cc(C(F)(F)F)n(C)c4=O)cc23)cc1 [Example 353, 1,2-Benzisothiazole-3-carboxamide, 5-[3,6-dihydro-3-methyl-2,6-dioxo-4-(trifluoromethyl)-1(2H)-pyrimidinyl]-N-(p-tolylsulfonyl)-]
herbicidal effect rating, ECHORC ([1]; Rate 0.0320 kg/ha): 0.0 | herbicidal effect rating, ECHORC ([1]; Rate 0.0620 kg/ha): 2.0 | herbicidal effect rating, ECHORC ([1]; Rate 0.1250 kg/ha): 2.5 | herbicidal effect rating, ECHORC ([1]; Rate 0.2500 kg/ha): 3.0 | herbicidal effect rating, CYPIR (Cyperus iria; Rate 0.0320 kg/ha): 0.0 | herbicidal effect rating, CYPIR (Cyperus iria; Rate 0.0620 kg/ha): 0.0 | herbicidal effect rating, CYPIR (Cyperus iria; Rate 0.1250 kg/ha): 1.0 | herbicidal effect rating, CYPIR (Cyperus iria; Rate 0.2500 kg/ha): 3.0 | herbicidal effect rating, CYPSE ([2]; Rate 0.0320 kg/ha): 0.0 | herbicidal effect rating, CYPSE ([2]; Rate 0.0620 kg/ha): 0.0 | herbicidal effect rating, CYPSE ([2]; Rate 0.1250 kg/ha): 1.5 | herbicidal effect rating, CYPSE ([2]; Rate 0.2500 kg/ha): 2.5 | herbicidal effect rating, MOOVA ([3]; Rate 0.0320 kg/ha): 3.5 | herbicidal effect rating, MOOVA ([3]; Rate 0.0620 kg/ha): 6.5 | herbicidal effect rating, MOOVA ([3]; Rate 0.1250 kg/ha): 8.0 | herbicidal effect rating, MOOVA ([3]; Rate 0.2500 kg/ha): 8.0 | herbicidal effect rating, SAGPY (Sagittaria pygmaea, L.; Rate 0.0320 kg/ha): 0.0 | herbicidal effect rating, SAGPY (Sagittaria pygmaea, L.; Rate 0.0620 kg/ha): 0.0 | herbicidal effect rating, SAGPY (Sagittaria pygmaea, L.; Rate 0.1250 kg/ha): 0.0 | herbicidal effect rating, SAGPY (Sagittaria pygmaea, L.; Rate 0.2500 kg/ha): 0.0 | herbicidal effect rating ORYSAT ([4]; Rate 0.0320 kg/ha): 2.5 | herbicidal effect rating ORYSAT ([4]; Rate 0.0620 kg/ha): 3.0 | herbicidal effect rating ORYSAT ([4]; Rate 0.1250 kg/ha): 3.5 | herbicidal effect rating ORYSAT ([4]; Rate 0.2500 kg/ha): 4.0

COCCOCCOC(=O)c1nsc2ccc(-n3c(=O)cc(C(F)(F)F)n(C)c3=O)cc12 [Example 389, 1,2-Benzisothiazole-3-carboxylic acid, 5-[3,6-dihydro-3-methyl-2,6-dioxo-4-(trifluoromethyl)-1(2H)-pyrimidinyl]-, 2-(2-methoxyethoxy)ethyl ester]
herbicidal effect rating, ECHORC ([1]; Rate 0.0320 kg/ha): 3.0 | herbicidal effect rating, ECHORC ([1]; Rate 0.0620 kg/ha): 4.0 | herbicidal effect rating, ECHORC ([1]; Rate 0.1250 kg/ha): 4.0 | herbicidal effect rating, ECHORC ([1]; Rate 0.2500 kg/ha): 7.0 | herbicidal effect rating, CYPIR (Cyperus iria; Rate 0.0320 kg/ha): 5.0 | herbicidal effect rating, CYPIR (Cyperus iria; Rate 0.0620 kg/ha): 5.0 | herbicidal effect rating, CYPIR (Cyperus iria; Rate 0.1250 kg/ha): 7.0 | herbicidal effect rating, CYPIR (Cyperus iria; Rate 0.2500 kg/ha): 9.0 | herbicidal effect rating, CYPSE ([2]; Rate 0.0320 kg/ha): 0.0 | herbicidal effect rating, CYPSE ([2]; Rate 0.1250 kg/ha): 7.0 | herbicidal effect rating, CYPSE ([2]; Rate 0.2500 kg/ha): 8.0 | herbicidal effect rating, MOOVA ([3]; Rate 0.0320 kg/ha): 7.0 | herbicidal effect rating, MOOVA ([3]; Rate 0.0620 kg/ha): 9.0 | herbicidal effect rating, MOOVA ([3]; Rate 0.1250 kg/ha): 9.0 | herbicidal effect rating, MOOVA ([3]; Rate 0.2500 kg/ha): 9.0 | herbicidal effect rating, SAGPY (Sagittaria pygmaea, L.; Rate 0.0320 kg/ha): 3.0 | herbicidal effect rating, SAGPY (Sagittaria pygmaea, L.; Rate 0.0620 kg/ha): 4.0 | herbicidal effect rating, SAGPY (Sagittaria pygmaea, L.; Rate 0.1250 kg/ha): 7.0 | herbicidal effect rating, SAGPY (Sagittaria pygmaea, L.; Rate 0.2500 kg/ha): 9.0 | herbicidal effect rating ORYSAT ([4]; Rate 0.0320 kg/ha): 3.0 | herbicidal effect rating ORYSAT ([4]; Rate 0.0620 kg/ha): 4.0 | herbicidal effect rating ORYSAT ([4]; Rate 0.1250 kg/ha): 4.0 | herbicidal effect rating ORYSAT ([4]; Rate 0.2500 kg/ha): 5.0

COC(=O)CS(=O)(=O)Cc1nsc2ccc(-n3c(=O)cc(C(F)(F)F)n(C)c3=O)cc12 [Example 272, Acetic acid, {{{5-[3,6-dihydro-3-methyl-2,6-dioxo-4-(trifluoromethyl)-1(2H)-pyrimidinyl]-1,2-benzisothiazol-3-yl}methyl}sulfonyl}-, methyl ester]
ECHORC herbicidal effect rating ([1]; Rate 0.5000 kg/ha): 0.0 | CYPIR herbicidal effect rating (Cyperus iria; Rate 0.5000 kg/ha): 0.0 | CYPSE herbicidal effect rating ([2]; Rate 0.5000 kg/ha): 0.0 | MOOVA herbicidal effect rating ([3]; Rate 0.5000 kg/ha): 0.0 | SAGPY herbicidal effect rating (Sagittaria pygmaea, L.; Rate 0.5000 kg/ha): 0.0 | ORYSAT herbicidal effect rating ([4]; Rate 0.5000 kg/ha): 0.0

Cn1c(C(F)(F)F)cc(=O)n(-c2ccc3snc(C(=O)NS(=O)(=O)CCc4ccccc4)c3c2)c1=O [Example 485, 1,2-Benzisothiazole-3-carboxamide, 5-[3,6-dihydro-3-methyl-2,6-dioxo-4-(trifluoromethyl)-1(2H)-pyrimidinyl]-N-(phenethylsulfonyl)-]
ECHORC herbicidal rating ([1]; 0.0320 kg/ha): 4.0 | ECHORC herbicidal rating ([1]; 0.0620 kg/ha): 6.0 | ECHORC herbicidal rating ([1]; 0.1250 kg/ha): 6.0 | ECHORC herbicidal rating ([1]; 0.2500 kg/ha): 9.0 | CYPIR herbicidal rating (Cyperus iria; 0.0320 kg/ha): 2.0 | CYPIR herbicidal rating (Cyperus iria; 0.0620 kg/ha): 4.0 | CYPIR herbicidal rating (Cyperus iria; 0.1250 kg/ha): 5.0 | CYPIR herbicidal rating (Cyperus iria; 0.2500 kg/ha): 6.0 | CYPSE herbicidal rating ([2]; 0.0320 kg/ha): 0.0 | CYPSE herbicidal rating ([2]; 0.0620 kg/ha): 0.0 | MOOVA herbicidal rating ([3]; 0.0320 kg/ha): 4.0 | MOOVA herbicidal rating ([3]; 0.0620 kg/ha): 6.0 | MOOVA herbicidal rating ([3]; 0.1250 kg/ha): 7.0 | MOOVA herbicidal rating ([3]; 0.2500 kg/ha): 8.0 | SAGPY herbicidal rating (Sagittaria pygmaea, L.; 0.0320 kg/ha): 0.0 | SAGPY herbicidal rating (Sagittaria pygmaea, L.; 0.0620 kg/ha): 0.0 | SAGPY herbicidal rating (Sagittaria pygmaea, L.; 0.1250 kg/ha): 0.0 | SAGPY herbicidal rating (Sagittaria pygmaea, L.; 0.2500 kg/ha): 3.0 | ORYSAT herbicidal rating (rice tolerance) ([4]; 0.0320 kg/ha): 0.0 | ORYSAT herbicidal rating (rice tolerance) ([4]; 0.0620 kg/ha): 2.0 | ORYSAT herbicidal rating (rice tolerance) ([4]; 0.1250 kg/ha): 4.0 | ORYSAT herbicidal rating (rice tolerance) ([4]; 0.2500 kg/ha): 5.0
